Results from patent US20200215099A1, “NON-ANTICOAGULANT SULFATED OR SULFONATED POLYSACCHARIDES” (Baxalta Incorporated, priority 2012, published 2020).

How the values were obtained:
FVIII-inhibited plasma = assay: Thrombin generation assay (CAT) in FVIII-inhibited plasma; type: biochemical, human
Protocol: The procoagulant activity of the sulfated polysaccharides was assessed by the Thrombin Generation Assay (TGA). The influence of each sulfated polysaccharide on thrombin generation was measured in duplicate via CAT in a Fluoroskan Ascent® reader (Thermo Labsystems, Helsinki, Finland; filters 390 nm excitation and 460 nm emission) following the slow cleavage of the fluorogenic substrate Z-Gly-GIy-Arg-AMC (Hemker H C. Pathophysiol Haemost Thromb (2003) 33(4):15). To each well of a 96 well microplate (Immulon 2HB, clear U-bottom; Thermo Electron) 80 μL of pre-warmed (37° C.) goat anti FVIII antibody treated human normal plasma pool was added. For triggering thrombin generation by tissue factor, 104 of PPP reagent containing a certain amount of recombinant human tissue factor (rTF) and phospholipid vesicles composed of phosphatidylserine, phosphatidylcholine and phosphatidylethanolamine (final concentration of 4 μM) (Thrombinoscope BV, Maastricht, The Netherlands) was added. For studying the procoagulant activity of sulfated polymers a final TF concentration of 1 pM was used to provide FVIII and TFPI sensitivity of the test system. Just prior to putting the plate into the pre-warmed (37° C.) reader, 10 µL of test or reference sample or calibrator compound was added. Thrombin generation was started by dispensing 204 of FluCa reagent (Thrombinoscope BV, Maastricht, The Netherlands) containing fluorogenic substrate and Hepes buffered CaCl2 (100 mM) into each well and fluorescence intensity was recorded at 37° C.
The parameters of the resulting thrombin generation curves were calculated using the Thrombinoscope™ software (Thrombinoscope BV, Maastricht, The Netherlands) and thrombin calibrator to correct for inner filter and substrate consumption effects (Hemker H C, Pathophysiol Haemost Thromb (2003) 33(4):15). With the thrombin calibrator as a reference, the molar concentration of thrombin in the test wells was calculated by the software. The thrombin amounts at the peak and peak times of each thrombin generation curve (peak thrombin, nM) were plotted against sulfated polysaccharide concentrations resulting in the procoagulant profile of these compounds. The thrombin generation assay results are illustrated in the figures appended hereto. From these plots half maximal effective concentrations (EC50) values are determined using a sigmoidal curve fit. The EC50 represents the concentration at which the half maximal thrombin peak is reached.

full-length TFPI = biological target: T1, full-length TFPI (Homo sapiens, UniProt P10646); assay: Dilute prothrombin time assay with added TFPI (TFPI-dPT); type: biochemical; settings: normal human plasma
T1 construct: 0.5 μg/mL full-length TFPI (aa 1-276, constitutively produced by SKHep1); made in house; host or cells: SKHep1
T1 sequence (P10646 29-304): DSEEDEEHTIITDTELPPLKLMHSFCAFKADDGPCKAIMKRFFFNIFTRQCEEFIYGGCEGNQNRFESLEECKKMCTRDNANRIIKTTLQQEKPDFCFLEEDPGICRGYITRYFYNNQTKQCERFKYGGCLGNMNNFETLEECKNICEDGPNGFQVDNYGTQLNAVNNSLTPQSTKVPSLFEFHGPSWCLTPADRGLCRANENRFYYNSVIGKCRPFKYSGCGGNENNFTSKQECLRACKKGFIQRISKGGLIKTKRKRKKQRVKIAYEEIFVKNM
Protocol: A dilute prothrombin time assay with added TFPI (TFPI-dPT) was used to evaluate the TFPI-inhibiting effect of the different NASPs. Pooled normal human plasma (George King Biomedical, Overland Park, Kans.) was pre-incubated with 0.5 μg/mL full-length TFPI (aa 1-276, constitutively produced by SKHep1) and the respective NASP (0-5 μg/mL) for 15 min at RT. TF reagent TriniClot PT Excel S (Trinity Biotech, Wicklow, Ireland), diluted in Hepes-buffered saline 1:200 with 0.5% BSA was added to the plasma samples on an ACL Pro Elite hemostasis analyzer (Instrumentation Laboratory, Bedford, Mass.). Clotting was initiated with 25 mM CaCl2). The volume ratio of plasma:TF:CaCl2 was 1:1:1.
For data analysis, TFPI-dPT is plotted against the log concentration. Half maximal effective concentrations (EC50) values are determined using a sigmoidal curve fit.

contact pathway = assay: CAT in normal plasma with and without CTI; type: biochemical; settings: normal plasma, 1 pM hTF, 4 μM PL, ±41 μg/mL CTI
[1] = Pharmacokinetics after oral administration; type: in vivo, CD rats
Protocol: The preparations were either unfractionated (average MW of 24 kD) or fractionated by a filter method (average MW of 14 kD). The substances were prepared in a physiological saline solution without enhancer or with 0.8 wt % DOC or with 3 wt % chitosan+0.5 mg/mL bromelain. Each group dosed with NASP consisted of six rats. For each formulation, three additional rats served as vehicle controls. Blood samples were collected in the presence of citrate (ratio 1:9) before dosing and 15, 30 min, 1, 5, and 7 h after the dosing. Platelet-poor plasma was prepared by two centrifugation steps at 3000 rpm for 10 min.
The NASPs in the plasma samples were detected by a fluorescence assay that uses the dye HeparinRed that specifically binds to sulfated polysaccharides. Experiments were performed in a black half-area 96-well microtiter plate (Costar). For the S-6-CI standard curves (0.185 to 2.5 μg/mL), 10 μL of rat plasma was spiked with 5 μL of S-6-CI and mixed with 40 μL of human pooled plasma to minimize the matrix effect of individual animals. Then 5 μl HeparinRed dye was added and incubated in the dark at RT for 5 min. Plasma samples of the dosed animals were treated accordingly, however, the 5 μL S-6-CI were replaced by buffer. Fluorescent signals were detected with a Tecan Safire2™ microplate fluorescence reader (Ex/Em 580/620 nm) and the S-6-CI quantified based on the S-6-CI standard curve. […]

[2] = Pharmacokinetics after intravenous administration; type: in vivo, CD rats
Protocol: The preparations were either unfractionated (average MW of 63 kD) or fractionated by a filter method (lots A and B with an average MW of 12 and 14 kD, respectively). The substances were prepared in a physiological saline solution and injected at 5 mL/kg. Each group consisted of three animals. Blood sample were collected in the presence of citrate (ratio 1:9) before dosing and 5, 30 min, 1, 3, 6, and 10 h after the dosing. Platelet-poor plasma was prepared by two centrifugation steps at 3000 rpm. The plasma samples were analyzed for by a liquid-chromatography-mass spectroscopy, a substance-specific method for S-6-CI.

## sulfated 6-carboxy-icodextrin
FVIII-inhibited plasma
  procoagulant activity (in words): good procoagulant activity in CAT assays at very low concentrations
FVIII-inhibited plasma; 37° C., 1 pM hTF, 4 μM PL
  procoagulant at (concentration): about 0.01 μg/mL
FVIII-inhibited plasma; half maximal thrombin peak, 1 pM hTF, 4 μM PL
  EC50: 0.07 µg/mL
full-length TFPI
  reversal of the effect of rec. FL-TFPI (in words): reverses the anticoagulant effect of exogenous full-length TFPI
Contact pathway
  concentration activating the contact pathway: > 33000 ng/mL
[1]; oral 50 mg/kg
  time of highest plasma level after dosing: 60 min
[1]; oral 50 mg/kg with chitosan+bromelain
  plasma levels at all time points: < 300 ng/mL
[2]; 5 min after i.v. dosing of 5 mg/kg
  in vivo recovery (plasma concentration): 28 to 44 µg/mL
[2]; i.v. 5 mg/kg, estimated from early time points
  half-life: 30 to 45 min
